Data reported in PubChem BioAssay (NCI).
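At the GI50, growth is halved. Definition used: TGI = concentration required for complete inhibition of growth.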

Experiments:
Assay in all cases: DTP human tumour cell line panel, 384-well format; in the data active means GI50 below about 0.43 µM; inactive means the rest
[1] = system: LOX IMVI melanoma
[2] = system: OVCAR-3 ovarian
[3] = system: SN12C renal
[4] = system: T-47D breast
[5] = system: NCI-H522 lung
[6] = system: ACHN renal
[7] = system: SF-539 CNS
[8] = system: RPMI-8226 leukemia
[9] = system: KM12 colon
[10] = system: 786-0 renal
[11] = system: DU-145 prostate
[12] = system: M14 melanoma
[13] = system: K-562 leukemia
[14] = system: MCF7 breast
[15] = system: EKVX NSCLC
[16] = system: SF-295 CNS
[17] = system: SK-OV-3 ovarian
[18] = system: UACC-62 melanoma
[19] = system: A498 renal
[20] = system: PC-3 prostate
[21] = system: HS 578T breast
[22] = system: BT-549 breast
[23] = system: SNB-19 CNS
[24] = system: CCRF-CEM leukemia
[25] = system: A549 NSCLC
[26] = system: UO-31 renal
[27] = system: HCT-15 colon
[28] = system: OVCAR-4 ovarian
[29] = system: NCI-H322M lung
[30] = system: NCI/ADR-RES ovarian
[31] = system: SW-620 colon
[32] = system: NCI-H23 lung
[33] = system: HOP-92 NSCLC
[34] = system: OVCAR-5 ovarian
[35] = system: IGROV1 ovarian
[36] = system: HT29 colon
[37] = system: HL-60(TB) leukemia
[38] = system: RXF 393 renal
[39] = system: NCI-H226 lung
[40] = system: MDA-MB-435 melanoma
[41] = system: OVCAR-8 ovarian
[42] = system: HCT-116 colon
[43] = system: SK-MEL-28 melanoma
[44] = system: MDA-MB-468 breast
[45] = system: CAKI-1 renal
[46] = system: MALME-3M melanoma
[47] = system: SF-268 CNS
[48] = system: MOLT-4 leukemia
[49] = system: HOP-62 NSCLC
[50] = system: TK-10 renal
[51] = system: MDA-MB-231 breast
[52] = system: SNB-75 CNS
[53] = system: U251 glioblastoma
[54] = system: UACC-257 melanoma
[55] = system: SK-MEL-2 melanoma

Cn1c(CCCC(=O)O)nc2cc(N(CCCl)CCCl)ccc21
33.2 µM: TGI [37]
32.4 µM: TGI [24]
32.8 µM: TGI [44]
10.3 µM: TGI [48]
> 100 µM: TGI [1] | TGI [2] | TGI [3] | TGI [4] | TGI [5] | TGI [6] | TGI [7] | TGI [8] | TGI [9] | TGI [10] | TGI [11] | TGI [12] | TGI [13] | TGI [14] | TGI [15] | TGI [16] | TGI [17] | TGI [18] | TGI [19] | TGI [20] | TGI [21] | TGI [22] | TGI [23] | TGI [25] | TGI [26] | TGI [27] | TGI [28] | TGI [29] | TGI [30] | TGI [31] | TGI [32] | TGI [33] | TGI [34] | TGI [35] | TGI [36] | TGI [38] | TGI [39] | TGI [40] | TGI [41] | TGI [42] | TGI [43] | TGI [45] | TGI [46] | TGI [47] | TGI [49] | TGI [50] | TGI [51] | TGI [52] | TGI [53] | TGI [54] | TGI [55]
inactive: GI50 [1] 88.3 µM | GI50 [2] > 100 µM | GI50 [3] 34.7 µM | GI50 [4] > 100 µM | GI50 [5] 39.3 µM | GI50 [6] 68.3 µM | GI50 [7] 50.4 µM | GI50 [8] 39.8 µM | GI50 [9] > 100 µM | GI50 [10] 90.6 µM | GI50 [11] > 100 µM | GI50 [12] 55.5 µM | GI50 [13] > 100 µM | GI50 [14] 71.3 µM | GI50 [15] > 100 µM | GI50 [16] > 100 µM | GI50 [17] > 100 µM | GI50 [18] 31.8 µM | GI50 [19] > 100 µM | GI50 [20] > 100 µM | GI50 [21] > 100 µM | GI50 [22] 57 µM | GI50 [23] > 100 µM | GI50 [24] 17.9 µM | GI50 [25] > 100 µM | GI50 [26] > 100 µM | GI50 [27] > 100 µM | GI50 [28] > 100 µM | GI50 [29] > 100 µM | GI50 [30] > 100 µM | GI50 [31] 72.7 µM | GI50 [32] 60.3 µM | GI50 [33] > 100 µM | GI50 [34] > 100 µM | GI50 [35] > 100 µM | GI50 [36] > 100 µM | GI50 [37] 17.3 µM | GI50 [38] 41.7 µM | GI50 [39] 93.1 µM | GI50 [40] > 100 µM | GI50 [41] 69.8 µM | GI50 [42] 61.3 µM | GI50 [43] > 100 µM | GI50 [44] 11.9 µM | GI50 [45] 55.4 µM | GI50 [46] > 100 µM | GI50 [47] 35.6 µM | GI50 [48] 3.2 µM | GI50 [49] 42 µM | GI50 [50] > 100 µM | GI50 [51] > 100 µM | GI50 [52] > 100 µM | GI50 [53] 47.1 µM | GI50 [54] > 100 µM | GI50 [55] > 100 µM
